The source made the active and inactive calls. No cut-off for these calls is given here.
Assays:
Autotaxin [1] = molecular target: T1, Autotaxin (Homo sapiens, UniProt Q13822); assay: Inhibition of recombinant ATX mediated hydrolysis of FS-3 at 0.5 to 2 times IC50
Autotaxin [2] = molecular target: T1, Autotaxin; assay: Inhibition of recombinant ATX mediated hydrolysis of FS-3
[3] = molecular target: Lysophosphatidic acid receptor 5 (Homo sapiens) (UniProt Q9H1C0); assay: Agonist activity at LPA5 receptor expressed in rat B103 cells assessed as calcium mobilization at >1 uM; assay type: functional, cell-based
B16-F10 = assay: Antitumor activity against mouse B16-F10 cells grafted in C57/BL6 mouse assessed as inhibition of lung metastases of cancer cells at 0.5 mg/kg/day, ip administered for 10 days and measured on day 21; assay type: functional, organism-based

Sequence of Lysophosphatidic acid receptor 5 (Homo sapiens) (Q9H1C0 whole entry): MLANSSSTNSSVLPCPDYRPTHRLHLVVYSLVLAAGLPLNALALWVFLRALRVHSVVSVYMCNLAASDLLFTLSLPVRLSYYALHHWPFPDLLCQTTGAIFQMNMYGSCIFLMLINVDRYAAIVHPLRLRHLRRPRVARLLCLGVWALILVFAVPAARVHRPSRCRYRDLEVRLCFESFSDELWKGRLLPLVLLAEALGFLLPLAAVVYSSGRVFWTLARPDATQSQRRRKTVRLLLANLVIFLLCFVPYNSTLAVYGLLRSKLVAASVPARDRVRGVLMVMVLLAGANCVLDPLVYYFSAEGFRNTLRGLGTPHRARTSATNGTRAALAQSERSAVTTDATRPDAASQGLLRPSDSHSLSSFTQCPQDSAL

Structure (SMILES)	inhibition (Autotaxin [1])	Ki (Autotaxin [2]) [µM]	Activity [3]	inhibition (B16-F10)
CCCCCCCCCCCCCCCCCC(=O)OC[C@H]1CCP(=O)(O)O1	Active	0.8	Active	Active
CCCCCCCCCCCCCCCCCC(=O)OC[C@@H]1CCP(=O)(O)O1	Active	1.6	Active	Active
CCCCCCCCCCCCCCCCCC(=O)OCC1CCP(=O)(O)O1 (racemic)	–	–	–	Active
